The source of these data is patent US6630177B1, “Products extracted from a plant of the genus Commiphora, particularly the Commiphora mukul plant, extracts containing same and applications thereof, for example in cosmetics” (Parfums Christian Dior, priority 1995, dated 2003).

Entries after “also recorded” stand apart in the source; their conditions may differ.

The subject of one experiment is 3T3 F442A. As to the kind of experiment: Determination of the glycero-3-phosphate dehydrogenase (G3PDH) activity in treated fibroblast (preadipocyte) cultures. Format: cell-based, murine. Particulars: for Rate of conversion of NADH: 3T3 F442A cultures treated at 5 μg/ml on D+5, D+7, D+9, G3PDH assayed on D+12, mean of three experiments; for Activity A1 (stimulation of G3PDH activity versus control cultures): 3T3 F442A cultures, calculated from Vp and Vt. From the text: The cells used are 3T3 F442A, which constitute a line of murine preadipocytes selected for their ability to convert to adipocytes if the culture conditions allow, in accordance with the method of Green, H. & Kehinde, C., Cell 1 (1974) 113.
The aim was to measure the expression of two differentiation markers, namely glycero-3-phosphate dehydrogenase (G3PDH) on the one hand and cyclic AMP (cAMP) on the other.
It is pointed out here that the enzyme G3PDH allows the formation, in the fibroblast, of glycerol 3-phosphate, a molecule which is subsequently involved in the synthesis of the intracellular lipids (triglycerides). Thus an increase in the activity of the G3PDH is directly linked to an increase in this synthesis.
The fibroblasts are inoculated at the bottom of Petri dishes of diameter 35 mm in Dulbecco's Modified Eagle's Medium (DMEM), in the presence of 5% of calf serum (CS) and 5% of fetal calf serum (FCS). Each experiment is performed in triplicate.
During the treatment phase, the medium consists of DMEM+10% of fetal calf serum.
The product or extract according to the invention is dissolved in ethanol and used on the cultures at a final concentration of 5 μg/ml.
On day D+5: treatment with resin of Commiphora mukul (extract G), FIIB1 or IIa or IIb at 5 μg/ml in DMEM, 10% FCS
On days D+7 and D+9: treatment identical to that performed on D+5
On day D+12: grinding of the cells for assay of G3PDH.
The cellular monolayer is recovered by scraping and vigorously homogenized in TRIS-HCl buffer (25 mM, pH 7.4), 1 mM EDTA, at 4° C. The G3PDH activity is determined on the supernatant of the ground cellular material immediately after centrifugation.
It is possible to calculate an absorption difference (ΔAbs)/min, which corresponds to the initial rate of the enzymatic reaction.
The results are expressed in terms of specific activity, i.e. in nmol of NADH converted/min/mg of cellular proteins (the total cellular protein content is evaluated by the method of BCA—PIERCE: protein assay reagent).
The activity Al of the products according to the invention on stimulation of the activity of this enzyme is calculated according to the following formula: [formula]
Vp is the mean value, over the three experiments, of the rate of conversion of NADH, expressed in nmol/min/mg of cellular proteins, in the cultures treated with the products according to the invention,
Vt is the mean value of this rate in the control cultures.

In the next experiment the test system is fibroblasts in culture. As to the kind of experiment: Lipogenic activity of the fractions on fibroblasts in culture. Format: cell-based. Conditions: result in words. Here is the method: In a first step, the extract G is subjected to a series of fractionations by high performance liquid chromatography. Each fraction is tested for its lipogenic activity on fibroblasts in culture using the method explained below. These different fractionations ultimately yield an active fraction, FIIB, whose characteristic peaks are identified on the chromatogram.

In the case of `C/C(=C\CC/C(C)=C/CC[C@@H]1[C@@]2(C)CCC(=O)C(C)(C)[C@@H]2CC[C@@]1(C)O)CC/C=C(\C)C(=O)O` [IIb, (5R,10S,8R,9R)-8-hydroxy-3-oxopolypoda-13E,17E,21 E-trien-30-oic acid], the “Rate of conversion of NADH” value with 3T3 F442A is 352 ± 62 nmol/min/mg of proteins. The “Activity A1 (stimulation of G3PDH activity versus control cultures)” value with 3T3 F442A (5 μg/ml) is reported as 610%. Moreover, the “Increase of the activity of the enzyme G3PDH compared with control cultures” value in the experiment on 3T3 F442A (fibroblast cultures, 5 μg/ml) is reported as 7 fold. Moreover, the Lipogenic activity entry in the experiment on fibroblasts in culture is recorded as “give the best results; also recorded: substantially equivalent”.

As to `C/C(=C\CC/C(C)=C/CC/C(C)=C/CC[C@@H]1[C@@]2(C)CCC(=O)C(C)(C)[C@@H]2CC[C@@]1(C)O)CO` [IIa, (5R, 10S,8R,9R)-3-oxopolypoda-13E,17E,21E-triene-8,30-diol], in the experiment with 3T3 F442A, the “Rate of conversion of NADH” value is 222 ± 88 nmol/min/mg of proteins. For the same compound, in the experiment on 3T3 F442A (5 μg/ml), the “Activity A1 (stimulation of G3PDH activity versus control cultures)” value is recorded as 348%. Also, the Lipogenic activity result in the experiment on fibroblasts in culture is “give the best results; also recorded: substantially equivalent”.
